Values quoted from earlier work, collected in patent US7943666B2, “Esters of capsaicin for treating pain” (Trinity Laboratories, Inc., priority 2006, dated 2011).

Tests used:
[1] = rats, i.v. administration
[2] = 540 mg per day orally for 30 days plus topical as needed; arthritis not responding to NSAIDs

Time to distribution to brain, spinal cord, liver and blood [1] [min] | Structure (SMILES) | Individuals improved [2] [%]
≤ 20 | COc1cc(CNC(=O)CCCCC=CC(C)C)ccc1O [capsaicin, 8-methyl-N-vanillyl-6-nonenamide] | –
– | CCCC/C=C\CCCCCCCC(=O)OCCCCCCCCCCCCCCCC [cetyl myristoleate, cis-9-cetyl myristoleate] | 63.5
